# Test results from patent US9302999B2, “Substituted triazoles as herbicides” (E. I. DU PONT DE NEMOURS AND COMPANY, priority 2012, dated 2016).
# Assays:
# Format in all cases: in vivo
# [1] = test system: nightshade (eastern black nightshade, Solanum ptycanthum); experiment: Test C pre-/postemergence: nightshade; conditions: Preemergence
# How it was run: (§1)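 Preemergence on seeds in loam/sand, postemergence on 2–18 cm (1–4-leaf) plants in peat-based medium; compounds in non-phytotoxic solvent with surfactant. After 13–15 days in greenhouse, visual rating versus controls, 0 (no effect) to 100 (complete control).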
# [2] = test system: morningglory (Ipomoea coccinea); experiment: Test C pre-/postemergence: morningglory
# How it was run: as §1
# [3] = test system: lambsquarters (Chenopodium album); experiment: Test C pre-/postemergence: lambsquarters
# How it was run: as §1
# [4] = test system: galium (catchweed bedstraw, Galium aparine); experiment: Test C pre-/postemergence: galium
# How it was run: as §1
# [5] = test system: winter wheat (Triticum aestivum); experiment: Test C pre-/postemergence: winter wheat
# How it was run: as §1
# [6] = test system: canarygrass (Phalaris minor); experiment: Test C postemergence: canarygrass
# How it was run: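 Crop and weed plants were grown in peat-vermiculite medium and treated postemergence at the 1- to 4-leaf stage (2-18 cm tall). After 13-15 days in a greenhouse, each species was rated visually against untreated controls on a 0-100 scale (0 no effect, 100 complete control).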
# [7] = test system: sedge, umbrella (small-flower umbrella sedge Cyperus difformis); experiment: Test B flooded paddy: sedge, umbrella; conditions: Flood; 250 g ai/ha; applied to paddy water at 2-leaf stage; visually evaluated after 13 to 15 days
# How it was run: (§2)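 Plants were grown to the 2-leaf stage and pots flooded to 3 cm above soil. Compounds were applied directly into the paddy water, with depth kept for the test. After 13–15 days in greenhouse, response was rated visually against controls on a 0 (no effect) to 100 (complete control) scale.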
# [8] = test system: velvetleaf (Abutilon theophrasti); experiment: Test C pre-/postemergence: velvetleaf
# How it was run: as §1
# rice (Oryza sativa) = experiment: Test B flooded paddy: rice; conditions: Flood; 250 g ai/ha; applied to paddy water at 2-leaf stage; visually evaluated after 13 to 15 days
# How it was run: as §2
# [9] = test system: cocklebur (common cocklebur, Xanthium strumarium); experiment: Test C pre-/postemergence: cocklebur
# How it was run: as §1
# corn (Zea mays) = experiment: Test C pre-/postemergence: corn; conditions: Preemergence
# How it was run: as §1
# [10] = test system: common (oilseed) sunflower (Helianthus annuus); experiment: Test C pre-/postemergence: sunflower; conditions: Preemergence
# How it was run: as §1
# [11] = 31 g ai/ha, scale of 0 to 100, 0 is no effect, 100 is complete control
# [12] = 62 g ai/ha, scale of 0 to 100, 0 is no effect, 100 is complete control
# [13] = 125 g ai/ha, scale 0 to 100, 0 no effect, 100 complete control
# [14] = 250 g ai/ha, scale 0 to 100, 0 no effect, 100 complete control
# [15] = Postemergence, 31 g ai/ha, scale 0 to 100 (0 no effect, 100 complete control)
# [16] = Postemergence, 62 g ai/ha, scale 0 to 100 (0 no effect, 100 complete control)
# [17] = Postemergence, 125 g ai/ha, scale 0 to 100, 0 no effect, 100 complete control
# [18] = Postemergence, 250 g ai/ha, scale 0 to 100
# [19] = Preemergence, 31 g ai/ha, scale of 0 to 100, 0 is no effect, 100 is complete control
# [20] = Preemergence, 62 g ai/ha, scale of 0 to 100, 0 is no effect, 100 is complete control
# [21] = Preemergence, 125 g ai/ha, scale 0 to 100, 0 no effect, 100 complete control
# [22] = Preemergence, 250 g ai/ha, scale 0 to 100, 0 no effect, 100 complete control
smiles,measurement,setting,value
COc1nn(-c2ccc(C(F)(F)F)cc2)nc1Cc1ccnc(C(F)F)c1 [Compound 138],"Plant response rating, Nightshade",[1]; [11],90
same,"Plant response rating, Nightshade",[1]; [12],95
same,"Plant response rating, Nightshade",[1]; [13],98
same,"Plant response rating, Nightshade",[1]; [14],98
same,"Plant response rating, Morningglory",[2]; [15],90
same,"Plant response rating, Morningglory",[2]; [16],90
same,"Plant response rating, Morningglory",[2]; [17],98
same,"Plant response rating, Morningglory",[2]; [18],98
same,"Plant response rating, Morningglory",[2]; [19],15
same,"Plant response rating, Morningglory",[2]; [20],55
same,"Plant response rating, Morningglory",[2]; [21],65
same,"Plant response rating, Morningglory",[2]; [22],98
same,"Plant response rating, Lambsquarters",[3]; [15],100
same,"Plant response rating, Lambsquarters",[3]; [16],100
same,"Plant response rating, Lambsquarters",[3]; [17],100
same,"Plant response rating, Lambsquarters",[3]; [18],100
same,"Plant response rating, Lambsquarters",[3]; [19],95
same,"Plant response rating, Lambsquarters",[3]; [20],98
same,"Plant response rating, Lambsquarters",[3]; [21],98
same,"Plant response rating, Lambsquarters",[3]; [22],98
same,"Plant response rating, Galium",[4]; [15],85
same,"Plant response rating, Galium",[4]; [16],90
same,"Plant response rating, Galium",[4]; [18],90
same,"Plant response rating, Galium",[4]; [19],95
same,"Plant response rating, Galium",[4]; [20],100
same,"Plant response rating, Galium",[4]; [21],100
same,"Plant response rating, Galium",[4]; [22],100
same,"Plant response rating, Wheat",[5]; [15],10
same,"Plant response rating, Wheat",[5]; [16],10
same,"Plant response rating, Wheat",[5]; [17],35
same,"Plant response rating, Wheat",[5]; [18],35
same,"Plant response rating, Wheat",[5]; [20],5
same,"Plant response rating, Wheat",[5]; [21],10
same,"Plant response rating, Wheat",[5]; [22],50
same,"Plant response rating, Canarygrass","[6]; 31 g ai/ha, scale 0 to 100 (0 no effect, 100 complete control)",30
same,"Plant response rating, Canarygrass","[6]; 62 g ai/ha, scale 0 to 100 (0 no effect, 100 complete control)",55
same,"Plant response rating, Canarygrass",[6]; [13],70
same,"Plant response rating, Canarygrass","[6]; 250 g ai/ha, scale 0 to 100",90
same,"Plant response rating, Sedge, Umbrella (0 to 100 scale, 0 is no effect, 100 is complete control)",[7],90
same,"Plant response rating, Velvetleaf",[8]; [15],50
same,"Plant response rating, Velvetleaf",[8]; [16],75
same,"Plant response rating, Velvetleaf",[8]; [17],80
same,"Plant response rating, Velvetleaf",[8]; [18],90
same,"Plant response rating, Velvetleaf",[8]; [19],5
same,"Plant response rating, Velvetleaf",[8]; [21],55
same,"Plant response rating, Velvetleaf",[8]; [22],98
same,"Plant response rating, Rice (0 to 100 scale, 0 is no effect, 100 is complete control)",rice (Oryza sativa),50
same,"Plant response rating, Cocklebur",[9]; [15],65
same,"Plant response rating, Cocklebur",[9]; [16],70
same,"Plant response rating, Cocklebur",[9]; [17],85
same,"Plant response rating, Cocklebur",[9]; [18],85
same,"Plant response rating, Cocklebur",[9]; [19],5
same,"Plant response rating, Cocklebur",[9]; [20],5
same,"Plant response rating, Cocklebur",[9]; [21],15
same,"Plant response rating, Cocklebur",[9]; [22],15
same,"Plant response rating, Corn",corn (Zea mays); [11],20
same,"Plant response rating, Corn",corn (Zea mays); [12],30
same,"Plant response rating, Corn",corn (Zea mays); [13],40
same,"Plant response rating, Corn",corn (Zea mays); [14],55
same,"Plant response rating, Sunflower",[10]; [11],5
same,"Plant response rating, Sunflower",[10]; [12],10
same,"Plant response rating, Sunflower",[10]; [13],30
same,"Plant response rating, Sunflower",[10]; [14],30
